Source: patent US9253983B2, “Triazole compound and use thereof” (KUREHA CORPORATION, priority 2011, dated 2016)

Assays:
Septoria tritici = test: Test 2 for antifungal effect, plate medium: S.t; type: cell-based; settings: PDA plate medium
Protocol: (§1) Compound (1-1b) or Compound (1-2b) was dissolved in dimethyl sulfoxide, and the resulting solution was added to a PDA medium (potato dextrose-agar medium) at about 60° C. The medium and the solution were mixed thoroughly in a conical flask, poured into a petri dish, and allowed to solidify. In this way, a plate medium containing Compound (1-1b) or Compound (1-2b) at a certain concentration was prepared.
(§2) Meanwhile, test microorganisms cultured on a plate medium in advance were cut out with the use of a cork borer 4 mm in diameter, and were inoculated onto the compound-containing plate medium. After the inoculation, the pathogens were cultured at their optimum growth temperatures (for example, refer to LIST OF CULTURES 1996 microorganisms 10th edition, Institute for Fermentation (foundation)) for 1 day to 7 days, and their growth was determined by measuring the diameter of their flora. The extent of growth of the pathogens on the compound-containing plate medium was compared with that of pathogens on a plate medium where no compound was added, and mycelial growth inhibition rate was calculated as in Experiment Example 10. Note that, in Experiment Example 11, controls used in the antifungal effect tests are Compound (1-1a) and Compound (1-2a) instead of Compound (1-1b) and Compound (1-2b), respectively.
(§3) The results were rated on a 1-to-5 scale as in Experiment Example 10.

Rhizopus oryzae = test: Test 1 for antifungal effect, plate medium: R.o; type: cell-based; settings: PDA plate medium
Protocol: (§4) Compound (1-1a) or Compound (1-2a) was dissolved in dimethyl sulfoxide, and the resulting solution was added to a PDA medium (potato dextrose-agar medium) at about 60° C. The medium and the solution were mixed thoroughly in a conical flask, poured into a petri dish, and allowed to solidify. In this way, a plate medium containing Compound (1-1a) or Compound (1-2a) at a certain concentration was prepared.
(§5) Meanwhile, test microorganisms cultured on a plate medium in advance were cut out with the use of a cork borer 4 mm in diameter, and were inoculated onto the compound-containing plate medium. After the inoculation, the microorganisms were cultured at their optimum growth temperatures (for example, refer to LIST OF CULTURES 1996 microorganisms 10th edition, Institute for Fermentation (foundation)) for 1 day to 7 days, and their growth was determined by measuring the diameter of their flora. The extent of growth of the microorganisms on the compound-containing plate medium was compared with that of microorganisms on a plate medium where no compound was added, and mycelial growth inhibition rate was calculated by the following equation: R=100(dc−dt)/dc where R is mycelial growth inhibition rate (%), dc is the flora diameter in untreated plate, and dt is the flora diameter in plate treated with the compound.
(§6) A larger antifungal index indicates a better antifungal effect.

Gaeumannomyces graminis = test: Test 1 for antifungal effect, plate medium: G.g; type: cell-based; settings: PDA plate medium
Protocol: as §4, §5, §6

Phaeosphaeria nodorum = test: Test 1 for antifungal effect, plate medium: P.n; type: cell-based; settings: PDA plate medium
Protocol: as §4, §5, §6

Penicillium italicum = test: Test 2 for antifungal effect, plate medium: P.i; type: cell-based; settings: PDA plate medium
Protocol: as §1, §2, §3

Botrytis cinerea [1] = test: Test 1 for antifungal effect, plate medium: B.c; type: cell-based; settings: PDA plate medium
Protocol: as §4, §5, §6

Microdochium nivale = test: Test 1 for antifungal effect, plate medium: M.n; type: cell-based; settings: PDA plate medium
Protocol: as §4, §5, §6

Gibberella fujikuroi = test: Test 1 for antifungal effect, plate medium: G.f; type: cell-based; settings: PDA plate medium
Protocol: as §4, §5, §6

Botrytis cinerea [2] = test: Controlling effect on cucumber gray mold by foliage spray treatment (Tests 1 and 2); type: in vivo; settings: four days after inoculation
Protocol: The cucumber plants had been grown in square plastic pots (6 cm×6 cm). After the suspension was then left to dry, paper discs (8 mm in diameter) impregnated with a spore suspension of Botrytis cinerea w ere placed on the leaves, and the plants were kept at 20° C. in a high humidity environment. Four days after inoculation, the lesion degree of the cucumber gray mold was examined in accordance with the criteria shown in Table 1, and the protective values were calculated by the following equation: Protective value (%)=(1−Average lesion degree in sprayed plot/Average lesion degree in unsprayed plot)×100.
The cucumber plants had been grown in square plastic pots (6 cm×6 cm). After the leaves were air-dried, paper discs (8 mm in diameter) impregnated with a spore suspension of cucumber graymold-causing microorganisms were placed on the leaves, and the plants were kept at 20° C. in a high humidity environment. 4 days after the inoculation, the lesion degree of the cucumber gray mold was examined, and the protective values were calculated as were in Experiment Example 1.

For `CC1(CCl)CCC(Cc2ccc(F)cc2)C1(O)Cn1cncn1` (single isomer, unassigned) [Compound (1-2b), (1,2-cis, 1,5-cis)-5-(4-fluorobenzyl)-2-chloromethyl-2-methyl-1-(1H-1,2,4-triazole-1-ylmethyl)cyclopentanol], the “Antifungal index (mycelial growth inhibition rate)” value (Septoria tritici; 0.04 mg/L) was 2 (Less than 70% but not less than 60%), the “Antifungal index (mycelial growth inhibition rate)” value (Septoria tritici; 0.08 mg/L) was 5 (90% or greater) and the “Antifungal index (mycelial growth inhibition rate)” value (Septoria tritici; 0.16 mg/L) was 5 (90% or greater). For the same compound, the “Antifungal index (mycelial growth inhibition rate)” value (Septoria tritici; 0.31 mg/L) was 5 (90% or greater), the “Antifungal index (mycelial growth inhibition rate)” value (Septoria tritici; 0.63 mg/L) was 5 (90% or greater) and the “Antifungal index (mycelial growth inhibition rate)” value (Septoria tritici; 1.25 mg/L) was 5 (90% or greater). For the same compound, the “Antifungal index (mycelial growth inhibition rate)” value (Rhizopus oryzae; 0.16 mg/L) was 1 (Less than 60%), the “Antifungal index (mycelial growth inhibition rate)” value (Rhizopus oryzae; 0.31 mg/L) was 1 (Less than 60%) and the “Antifungal index (mycelial growth inhibition rate)” value (Rhizopus oryzae; 0.63 mg/L) was 1 (Less than 60%). For the same compound, the “Antifungal index (mycelial growth inhibition rate)” value (Rhizopus oryzae; 1.25 mg/L) was 1 (Less than 60%), the “Antifungal index (mycelial growth inhibition rate)” value (Rhizopus oryzae; 2.50 mg/L) was 2 (Less than 70% but not less than 60%) and the “Antifungal index (mycelial growth inhibition rate)” value (Gaeumannomyces graminis; 0.16 mg/L) was 1 (Less than 60%). For the same compound, the “Antifungal index (mycelial growth inhibition rate)” value (Gaeumannomyces graminis; 0.31 mg/L) was 1 (Less than 60%), the “Antifungal index (mycelial growth inhibition rate)” value (Gaeumannomyces graminis; 0.63 mg/L) was 4 (Less than 90% but not less than 80%) and the “Antifungal index (mycelial growth inhibition rate)” value (Gaeumannomyces graminis; 1.25 mg/L) was 5 (90% or greater). For the same compound, the “Antifungal index (mycelial growth inhibition rate)” value (Gaeumannomyces graminis; 2.50 mg/L) was 5 (90% or greater), the “Antifungal index (mycelial growth inhibition rate)” value (Phaeosphaeria nodorum; 0.16 mg/L) was 1 (Less than 60%) and the “Antifungal index (mycelial growth inhibition rate)” value (Phaeosphaeria nodorum; 0.31 mg/L) was 1 (Less than 60%). For the same compound, the “Antifungal index (mycelial growth inhibition rate)” value (Phaeosphaeria nodorum; 0.63 mg/L) was 2 (Less than 70% but not less than 60%), the “Antifungal index (mycelial growth inhibition rate)” value (Phaeosphaeria nodorum; 1.25 mg/L) was 3 (Less than 80% but not less than 70%) and the “Antifungal index (mycelial growth inhibition rate)” value (Phaeosphaeria nodorum; 2.50 mg/L) was 5 (90% or greater). The “Antifungal index (mycelial growth inhibition rate)” value (Penicillium italicum; 0.04 mg/L) was 1 (Less than 60%), the “Antifungal index (mycelial growth inhibition rate)” value (Penicillium italicum; 0.08 mg/L) was 4 (Less than 90% but not less than 80%) and the “Antifungal index (mycelial growth inhibition rate)” value (Penicillium italicum; 0.16 mg/L) was 5 (90% or greater). The “Antifungal index (mycelial growth inhibition rate)” value (Penicillium italicum; 0.31 mg/L) was 5 (90% or greater), the “Antifungal index (mycelial growth inhibition rate)” value (Penicillium italicum; 0.63 mg/L) was 5 (90% or greater) and the “Antifungal index (mycelial growth inhibition rate)” value (Penicillium italicum; 1.25 mg/L) was 5 (90% or greater). The “Antifungal index (mycelial growth inhibition rate)” value (Botrytis cinerea [1]; 0.16 mg/L) was 1 (Less than 60%), the “Antifungal index (mycelial growth inhibition rate)” value (Botrytis cinerea [1]; 0.31 mg/L) was 3 (Less than 80% but not less than 70%) and the “Antifungal index (mycelial growth inhibition rate)” value (Botrytis cinerea [1]; 0.63 mg/L) was 5 (90% or greater). For the same compound, the “Antifungal index (mycelial growth inhibition rate)” value (Botrytis cinerea [1]; 1.25 mg/L) was 5 (90% or greater), the “Antifungal index (mycelial growth inhibition rate)” value (Botrytis cinerea [1]; 2.50 mg/L) was 5 (90% or greater) and the “Antifungal index (mycelial growth inhibition rate)” value (Microdochium nivale; 0.16 mg/L) was 1 (Less than 60%). The “Antifungal index (mycelial growth inhibition rate)” value (Microdochium nivale; 0.31 mg/L) was 1 (Less than 60%), the “Antifungal index (mycelial growth inhibition rate)” value (Microdochium nivale; 0.63 mg/L) was 1 (Less than 60%) and the “Antifungal index (mycelial growth inhibition rate)” value (Microdochium nivale; 1.25 mg/L) was 1 (Less than 60%). For the same compound, the “Antifungal index (mycelial growth inhibition rate)” value (Microdochium nivale; 2.50 mg/L) was 2 (Less than 70% but not less than 60%), the “Antifungal index (mycelial growth inhibition rate)” value (Gibberella fujikuroi; 0.16 mg/L) was 3 (Less than 80% but not less than 70%) and the “Antifungal index (mycelial growth inhibition rate)” value (Gibberella fujikuroi; 0.31 mg/L) was 4 (Less than 90% but not less than 80%). The “Antifungal index (mycelial growth inhibition rate)” value (Gibberella fujikuroi; 0.63 mg/L) was 5 (90% or greater), the “Antifungal index (mycelial growth inhibition rate)” value (Gibberella fujikuroi; 1.25 mg/L) was 5 (90% or greater) and the “Antifungal index (mycelial growth inhibition rate)” value (Gibberella fujikuroi; 2.50 mg/L) was 5 (90% or greater). The “Protective value (%)” value (Botrytis cinerea [2]; foliage spray 3.1 mg/L, 1,000 L/ha) was 15% and the “Protective value (%)” value (Botrytis cinerea [2]; foliage spray 12.5 mg/L, 1,000 L/ha) was 98%.
